Paper PMC8571282 (Nature Communications, 2021)
Where “and” joins values, the source holds several entries; their conditions need not be identical. Identical values can stand only once. Like-named read-outs stand apart in the source and are kept apart here.

Key:
[1] = format: in vivo, ferret (Mustela putorius furo); design: Temperature, Mean Diff. (Vehicle - treated): unit not given here; settings: for Bodyweight, Mean 2 (treated group) / Bodyweight, Mean Diff. (Vehicle vs. treated): Fig 3e; for Bodyweight, Mean 2 (treated group) / Bodyweight, Mean Diff. (Vehicle vs. treated) / Temperature, Mean 2 (treated group) / Temperature, Mean Diff. (Vehicle vs. treated): 5 mg/kg, b.i.d.; for Temperature, Mean 2 (treated group) / Temperature, Mean Diff. (Vehicle vs. treated): Fig 3d; for Bodyweight, Mean 2 (treated group mean) / Bodyweight, Mean Diff. (Vehicle - treated): Fig 2e; for Bodyweight, Mean 2 (treated group mean) / Bodyweight, Mean Diff. (Vehicle - treated) / Temperature, Mean 2 (treated group mean) / Temperature, Mean Diff. (Vehicle - treated): 20 mg kg-1 b.i.d.; for Bodyweight, Mean 2 (treated group mean) / Temperature, Mean 2 (treated group mean): N 4; for Bodyweight, Mean Diff. (Vehicle - treated) / Temperature, Mean Diff. (Vehicle - treated): Šídák's multiple comparisons test; for Temperature, Mean 2 (treated group mean) / Temperature, Mean Diff. (Vehicle - treated): Fig 2d
[2] = test system: SARS-CoV-2 WA1/2020; format: in vivo, ferret (Mustela putorius furo); settings: for Transform of Nasal lavage titer, Mean 2 (treated group) / Transform of Nasal lavage titer, Mean Diff. (Vehicle vs. treated): Fig 3b; for Transform of Nasal Lavage RNA copies, Mean 2 (treated group) / Transform of Nasal Lavage RNA copies, Mean Diff. (Vehicle vs. treated): Fig 3f, 5mg/kg b.i.d.
[3] = test system: SARS-CoV-2 WA1/2020; format: in vivo, ferret (Mustela putorius furo); settings: Fig 2g, 20 mg kg-1 b.i.d.; for Transform of Nasal lavage RNA copies/uL, Mean 2 (treated group mean): N 4; for Transform of Nasal lavage RNA copies/uL, Mean Diff. (Vehicle - treated): Šídák's multiple comparisons test
[4] = Single-dose plasma pharmacokinetics in ferrets; settings: ferret plasma, analyte 441524 after IV '524, 20 mg/kg, 20 mg/kg; for AUC(0-t) / clearance / Cmax: plasma, iv; for AUC(0-t): AUClast; for clearance: Cl_obs

CC(C)C(=O)OC[C@H]1O[C@@H](n2ccc(NO)nc2=O)[C@H](O)[C@@H]1O [EIDD-2801/molnupiravir, reference compound]
Bodyweight, Mean 2 (treated group) ([1]; Row 1 (time)): 100
Bodyweight, Mean Diff. (Vehicle vs. treated) ([1]; Row 1 (time)): 0
Bodyweight, Mean 2 (treated group) ([1]; Row 2 (time)): 104
Bodyweight, Mean Diff. (Vehicle vs. treated) ([1]; Row 2 (time)): -3.257
Bodyweight, Mean 2 (treated group) ([1]; Row 3 (time)): 103.5
Bodyweight, Mean Diff. (Vehicle vs. treated) ([1]; Row 3 (time)): -2.179
Bodyweight, Mean 2 (treated group) ([1]; Row 4 (time)): 103.9
Bodyweight, Mean Diff. (Vehicle vs. treated) ([1]; Row 4 (time)): -1.728
Bodyweight, Mean 2 (treated group) ([1]; Row 5 (time)): 105.6
Bodyweight, Mean Diff. (Vehicle vs. treated) ([1]; Row 5 (time)): -3.149
Temperature, Mean 2 (treated group) ([1]; Row 1 (time)): 38.55
Temperature, Mean Diff. (Vehicle vs. treated) ([1]; Row 1 (time)): 0.6
Temperature, Mean 2 (treated group) ([1]; Row 2 (time)): 38.7
Temperature, Mean Diff. (Vehicle vs. treated) ([1]; Row 2 (time)): -0.025
Temperature, Mean 2 (treated group) ([1]; Row 3 (time)): 38.58
Temperature, Mean Diff. (Vehicle vs. treated) ([1]; Row 3 (time)): 0.1
Temperature, Mean 2 (treated group) ([1]; Row 4 (time)): 38.6
Temperature, Mean Diff. (Vehicle vs. treated) ([1]; Row 4 (time)): 0.05
Temperature, Mean 2 (treated group) ([1]; Row 5 (time)): 38.53
Temperature, Mean Diff. (Vehicle vs. treated) ([1]; Row 5 (time)): 0.05
Body temperature (Fig 3D) ([1]; in vivo): 39.3 and 38.7 and 38.2 and 38.6 and 38.9 and 38.4 and 37.8
Transform of Nasal lavage titer, Mean 2 (treated group) ([2]; Day 0, 5 mg/kg, b.i.d.): 0.699
Transform of Nasal lavage titer, Mean Diff. (Vehicle vs. treated) ([2]; Day 0, 5 mg/kg, b.i.d.): 0
Transform of Nasal lavage titer, Mean 2 (treated group) ([2]; Day 0.5, 5 mg/kg, b.i.d.): 2.389
Transform of Nasal lavage titer, Mean Diff. (Vehicle vs. treated) ([2]; Day 0.5, 5 mg/kg, b.i.d.): 0.206
Transform of Nasal lavage titer, Mean 2 (treated group) ([2]; Day 1, 5 mg/kg, b.i.d.): 2.25
Transform of Nasal lavage titer, Mean Diff. (Vehicle vs. treated) ([2]; Day 1, 5 mg/kg, b.i.d.): 1.457
Transform of Nasal lavage titer, Mean 2 (treated group) ([2]; Day 1.5, 5 mg/kg, b.i.d.): 2.025
Transform of Nasal lavage titer, Mean Diff. (Vehicle vs. treated) ([2]; Day 1.5, 5 mg/kg, b.i.d.): 2.631
Transform of Nasal lavage titer, Mean 2 (treated group) ([2]; Day 2, 5 mg/kg, b.i.d.): 1.683
Transform of Nasal lavage titer, Mean Diff. (Vehicle vs. treated) ([2]; Day 2, 5 mg/kg, b.i.d.): 2.587
Transform of Nasal lavage titer, Mean 2 (treated group) ([2]; Day 2.5, 5 mg/kg, b.i.d.): 2.004
Transform of Nasal lavage titer, Mean Diff. (Vehicle vs. treated) ([2]; Day 2.5, 5 mg/kg, b.i.d.): 2.196
Transform of Nasal lavage titer, Mean 2 (treated group) ([2]; Day 3, 5 mg/kg, b.i.d.): 1.551
Transform of Nasal lavage titer, Mean Diff. (Vehicle vs. treated) ([2]; Day 3, 5 mg/kg, b.i.d.): 2.25
Transform of Nasal lavage titer, Mean 2 (treated group) ([2]; Day 3.5, 5 mg/kg, b.i.d.): 1.802
Transform of Nasal lavage titer, Mean Diff. (Vehicle vs. treated) ([2]; Day 3.5, 5 mg/kg, b.i.d.): 2.074
Transform of Nasal lavage titer, Mean 2 (treated group) ([2]; Day 4, 5 mg/kg, b.i.d.): 1.119
Transform of Nasal lavage titer, Mean Diff. (Vehicle vs. treated) ([2]; Day 4, 5 mg/kg, b.i.d.): 2.869
Transform of Nasal Turbinate titer, Mean 2 (treated group) ([2]; Fig 3c, 5 mg/kg, b.i.d.): 2.801
Transform of Nasal Turbinate titer, Mean Diff. (Vehicle vs. treated) ([2]; Fig 3c, 5 mg/kg, b.i.d.): 3.122
Transform of Nasal Lavage RNA copies, Mean 2 (treated group) ([2]; Row 1 (time)): 0
Transform of Nasal Lavage RNA copies, Mean Diff. (Vehicle vs. treated) ([2]; Row 1 (time)): 0
Transform of Nasal Lavage RNA copies, Mean 2 (treated group) ([2]; Row 2 (time)): 4.936
Transform of Nasal Lavage RNA copies, Mean Diff. (Vehicle vs. treated) ([2]; Row 2 (time)): 0.6755
Transform of Nasal Lavage RNA copies, Mean 2 (treated group) ([2]; Row 3 (time)): 4.762
Transform of Nasal Lavage RNA copies, Mean Diff. (Vehicle vs. treated) ([2]; Row 3 (time)): 1.379
Transform of Nasal Lavage RNA copies, Mean 2 (treated group) ([2]; Row 4 (time)): 4.913
Transform of Nasal Lavage RNA copies, Mean Diff. (Vehicle vs. treated) ([2]; Row 4 (time)): 0.7124
Transform of Nasal Lavage RNA copies, Mean 2 (treated group) ([2]; Row 5 (time)): 4.419
Transform of Nasal Lavage RNA copies, Mean Diff. (Vehicle vs. treated) ([2]; Row 5 (time)): 1.314
viral RNA copies in nasal lavages and turbinates vs vehicle ([2]; in vivo): statistically significant mean reduction
virus burden in the turbinates ([2]; in vivo): approached the limit of detection
virus shedding in nasal lavages ([2]; in vivo): near-detection level

CC(C)C(=O)OCC1OC(C#N)(c2ccc3c(N)ncnn23)C(OC(=O)C(C)C)C1OC(=O)C(C)C (stereo not shown) [GS-62-1763]
Bodyweight, Mean 2 (treated group mean) ([1]; Row 1 (time)): 100
Bodyweight, Mean Diff. (Vehicle - treated) ([1]; Row 1 (time)): 0
Bodyweight, Mean 2 (treated group mean) ([1]; Row 2 (time)): 102.1
Bodyweight, Mean Diff. (Vehicle - treated) ([1]; Row 2 (time)): -0.8462
Bodyweight, Mean 2 (treated group mean) ([1]; Row 3 (time)): 104.7
Bodyweight, Mean Diff. (Vehicle - treated) ([1]; Row 3 (time)): -2.64
Bodyweight, Mean 2 (treated group mean) ([1]; Row 4 (time)): 105.7
Bodyweight, Mean Diff. (Vehicle - treated) ([1]; Row 4 (time)): -3.357
Bodyweight, Mean 2 (treated group mean) ([1]; Row 5 (time)): 105.5
Bodyweight, Mean Diff. (Vehicle - treated) ([1]; Row 5 (time)): -2.899
Temperature, Mean 2 (treated group mean) ([1]; Row 1 (time)): 38.58
Temperature, Mean Diff. (Vehicle - treated) ([1]; Row 1 (time)): -0.25
Temperature, Mean 2 (treated group mean) ([1]; Row 2 (time)): 38.45
Temperature, Mean Diff. (Vehicle - treated) ([1]; Row 2 (time)): 0.275
Temperature, Mean 2 (treated group mean) ([1]; Row 3 (time)): 38.68
Temperature, Mean Diff. (Vehicle - treated) ([1]; Row 3 (time)): 0.675
Temperature, Mean 2 (treated group mean) ([1]; Row 4 (time)): 38.4
Temperature, Mean Diff. (Vehicle - treated) ([1]; Row 4 (time)): 0.85
Temperature, Mean 2 (treated group mean) ([1]; Row 5 (time)): 38.33
Temperature, Mean Diff. (Vehicle - treated) ([1]; Row 5 (time)): 0.6
Transform of Nasal lavage RNA copies/uL, Mean 2 (treated group mean) ([3]; Row 1 (time)): 0
Transform of Nasal lavage RNA copies/uL, Mean Diff. (Vehicle - treated) ([3]; Row 1 (time)): 0
Transform of Nasal lavage RNA copies/uL, Mean 2 (treated group mean) ([3]; Row 2 (time)): 3.525
Transform of Nasal lavage RNA copies/uL, Mean Diff. (Vehicle - treated) ([3]; Row 2 (time)): 1.479
Transform of Nasal lavage RNA copies/uL, Mean 2 (treated group mean) ([3]; Row 3 (time)): 3.436
Transform of Nasal lavage RNA copies/uL, Mean Diff. (Vehicle - treated) ([3]; Row 3 (time)): 2.713
Transform of Nasal lavage RNA copies/uL, Mean 2 (treated group mean) ([3]; Row 4 (time)): 3.353
Transform of Nasal lavage RNA copies/uL, Mean Diff. (Vehicle - treated) ([3]; Row 4 (time)): 2.648
Transform of Nasal lavage RNA copies/uL, Mean 2 (treated group mean) ([3]; Row 5 (time)): 3.502
Transform of Nasal lavage RNA copies/uL, Mean Diff. (Vehicle - treated) ([3]; Row 5 (time)): 2.475

N#CC1(c2ccc3c(N)ncnn23)OC(CO)C(O)C1O (stereo not shown) [compound 441524]
Cl_obs ([4]; individual animals F0201-F0203): 12 mL/min/kg and 17.3 mL/min/kg
AUC(0-t) ([4]; Mean): 81.1 µM·h
AUC(0-t) ([4]; individual animals F0201-F0203): 82 µM·h
clearance ([4]; Mean): 14.4 mL/min/kg
clearance ([4]; individual animals F0201-F0203): 13.9 mL/min/kg
Cmax ([4]; Mean): 54.2 µM
Cmax ([4]; individual animals F0201-F0203): 62.4 µM
